Laboratory results from US7919101B2 (priority 2008, dated 2011).
Read-outs that look alike come from different tables or passages of the source. Residues, ends and D or L forms follow the SMILES beside them. No end group written: not given here.

What was measured:
gp41 6-HB formation = gp41 6-HB formation (Human immunodeficiency virus type 1 group M subtype B, UniProt P04578); settings: cited from earlier work
[1] = tested on: HIV-1 Env-mediated cell-cell fusion; settings: cited from earlier work
HIV-1 = settings: cited from earlier work
[2] = cited from earlier work
[3] = tested on: HIV-1-mediated cell-cell fusion (H9/HIV-1IIIB cells and MT-2 cells); assay: HIV-1-mediated cell-cell fusion, dye transfer assay; type: cell-based
Procedure: The inhibitory activities of the compounds on HIV-induced cell-cell fusion were determined using a dye transfer assay (Jiang S et al. Proc SPIE 3926:212-219, 2000). Briefly, H9/HIV-1IIIB cells were pre-labeled with a fluorescent dye, Calcein AM (Molecular Probes, Inc.), and incubated with a testing compound at a graded concentration at 37° C. for 30 min in a 96-well cell culture plate. Then the CD4^+ MT-2 cells were added to the H9/HIV-1IIIB cells at a ratio of 10:1, followed by incubation at 37° C. for 2 hrs. The fused and unfused calcein-labeled HIV-1-infected cells were counted under an inverted fluorescence microscope with an eyepiece micrometer disc.

[4] = in combination T-20:Sifuvirtide (4:1)
[5] = in combination T-20:Sifuvirtide (4:1) vs alone

gp41 6-HB formation, sequence (P04578 546-581): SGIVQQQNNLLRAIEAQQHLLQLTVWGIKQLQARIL

In the case of `COc1ccc(S(=O)(=O)[O-])cc1N=Nc1c(S(=O)(=O)[O-])cc2cc(Nc3nc(Nc4ccccc4)nc(Nc4cc(C)c(N=Nc5cc(S(=O)(=O)[O-])cc6cc(S(=O)(=O)[O-])cc(O)c56)cc4OC)n3)ccc2c1O.[Na+].[Na+].[Na+].[Na+]` [ADS-J1], the “EC50, gp41 6-HB formation (in words)” value (gp41 6-HB formation) is given as “low μM range”, the “EC50, HIV-1 mediated cell-cell fusion (in words)” value [1] is given as “low μM range” and the “EC50, HIV infection / replication (in words)” value (HIV-1) is given as “low μM range”.
For `CC[C@H](C)[C@H](NC(=O)[C@H](CCC(=O)O)NC(=O)[C@H](CCCNC(=N)N)NC(=O)[C@H](CCC(=O)O)NC(=O)[C@H](Cc1c[nH]c2ccccc12)NC(=O)[C@@H](NC(=O)[C@H](CCC(=O)O)NC(=O)[C@H](Cc1c[nH]c2ccccc12)NC(=O)[C@@H](N)CO)[C@@H](C)O)C(=O)N[C@@H](CCC(=O)O)C(=O)N[C@@H](CC(N)=O)C(=O)N[C@@H](Cc1ccc(O)cc1)C(=O)N[C@H](C(=O)N[C@@H](CCCCN)C(=O)N[C@@H](CCC(N)=O)C(=O)N[C@H](C(=O)N[C@@H](Cc1ccc(O)cc1)C(=O)N[C@@H](CCCCN)C(=O)N[C@H](C(=O)N[C@@H](CC(C)C)C(=O)N[C@@H](CCC(=O)O)C(=O)N[C@@H](CCC(=O)O)C(=O)N[C@@H](CO)C(=O)N[C@@H](CCC(N)=O)C(=O)N[C@@H](CCC(=O)O)C(=O)N[C@@H](CCC(N)=O)C(=O)N[C@@H](CCC(N)=O)C(=O)N[C@@H](CC(=O)O)C(=O)N[C@@H](CCCNC(=N)N)C(=O)N[C@@H](CC(N)=O)C(=O)N[C@@H](CCC(=O)O)C(=O)N[C@@H](CCCCN)C(=O)N[C@@H](CC(=O)O)C(=O)N[C@@H](CC(C)C)C(=O)N[C@@H](CC(C)C)C(=O)N[C@@H](CCC(=O)O)C(=O)O)[C@@H](C)CC)[C@@H](C)CC)[C@@H](C)O` [Sifuvirtide] (H-SWETWEREIENYTKQIYKILEESQEQQDRNEKDLLE-OH; N-terminus and C-terminus assumed), the decay half-life ([2]; multiple administration) is given as 26.0 ± 7.9 h, the decay half-life ([2]; single administration) is given as 20.0 ± 8.6 h and the “EC70 Concentration Mix” value [3, 4] is given as 0.000589 µM. The “EC95 Concentration Mix” value [3, 4] was 0.000884 µM, the “Potency increase at EC50” value [3, 5] was 35.424 fold and the “Potency increase at EC70” value [3, 5] was 35.075 fold. The “Potency increase at EC90” value [3, 5] was 34.771 fold, the “Potency increase at EC95” value [3, 5] was 34.564 fold and the EC50 ([3]; in combination T-20:Sifuvirtide (4:1), read-out: EC50 Concentration Mix) was 0.000462 µM. The EC90 ([3]; in combination T-20:Sifuvirtide (4:1), read-out: EC90 Concentration Mix) was 0.00075 µM, the “EC70 Concentration Alone” value ([3]; peptide tested alone) was 0.020659 µM and the “EC95 Concentration Alone” value ([3]; peptide tested alone) was 0.030555 µM. The EC50 ([3]; peptide tested alone, read-out: EC50 Concentration Alone) was 0.0164 µM and the EC90 ([3]; peptide tested alone, read-out: EC90 Concentration Alone) was 0.0261 µM.
In the case of “NHR-peptide, disulfide-stabilized helical trimer; SEQ ID NO:48 SGIVQQQNNLLRAIEAQQHLLQLTVWGIKQCCGR (not fully specified (bridges); also: disulfide-stabilized helical trimer) [N34ccg]”, the EC50 ([1]; read-out: EC50, HIV-induced cell-cell fusion) is listed as 0.095 µM.
For “short all D-amino acid peptide; SEQ ID NO:24 KGACELLGWEWAWLCAA [D10-p5-2K]”, the “EC50, HIV infection / replication (in words)” value (HIV-1) is given as “low micromolar range”.
In the case of “short all D-amino acid peptide; SEQ ID NO:25 KGACDYPEWQWLCAA [PIE7]”, the “EC50, HIV infection / replication (in words)” value (HIV-1) is given as “low micromolar range”.
